Patent publication US10065990B2, “Cyclic peptide compound, and preparation method, pharmaceutical composition and use thereof” (HANGZHOU GUANYU BIO-MEDICAL CO., LTD, priority 2013, dated 2018)
Like-named read-outs stand apart in the source and are kept apart here.

Columns and labels:
HDAC2 = HDAC2 (Homo sapiens, UniProt Q92769); assay: HDAC biochemical activity measurement (fluorescent substrate deacetylation);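 note: HDAC2 enzyme with an acetyl-lysine fluorescent substrate, then developer added, fluorescence read at excitation 360 nm and emission 460 nm, inhibition measured across several compound concentrations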; details: 37° C. 30 minutes
Chain of HDAC2 (Q92769 whole entry, species assumed): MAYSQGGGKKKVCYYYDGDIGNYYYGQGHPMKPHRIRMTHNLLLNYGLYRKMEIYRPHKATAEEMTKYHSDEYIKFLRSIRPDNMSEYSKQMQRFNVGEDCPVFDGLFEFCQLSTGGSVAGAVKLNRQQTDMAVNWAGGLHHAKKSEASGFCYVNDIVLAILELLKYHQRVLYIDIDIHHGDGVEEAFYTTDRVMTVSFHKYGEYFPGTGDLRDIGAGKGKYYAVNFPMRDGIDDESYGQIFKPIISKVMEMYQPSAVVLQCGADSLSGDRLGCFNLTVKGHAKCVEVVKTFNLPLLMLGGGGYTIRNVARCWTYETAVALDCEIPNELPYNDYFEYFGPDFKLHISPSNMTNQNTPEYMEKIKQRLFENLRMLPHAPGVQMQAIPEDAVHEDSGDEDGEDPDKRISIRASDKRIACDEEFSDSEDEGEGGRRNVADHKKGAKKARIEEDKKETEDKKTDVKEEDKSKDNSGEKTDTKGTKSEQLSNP
Protocol: The chemical activity of the compound is determined according to the degree of deacetylation inhibition of the HDAC enzyme. This experiment measured the degree of deacetylation related to tumor proliferation and metastasis of HDAC1, HDAC2, HDAC3, HDAC8, HDAC11 five subtypes HDAC enzymes. After the substrate containing an acetylated lysine side chain and HDAC enzyme are labeled with a fluorescent label, the fluorescent substrate is de acetyl. The fluorescent labeled substrate is cleaved by the enzyme, and the fluorescent substance is released, which generates 460 nm emission light under the excitation of 360 nm light.
HDAC substrate was diluted with reaction buffer to 200M (reaction concentration of 20M), the HDAC enzyme was diluted to the appropriate concentration, then added different concentrations of the test compounds and acted at 37° C. 30 minutes, and then added the same volume of 2-times concentration substrate developing solution (developer), incubated at room temperature for 15 minutes.

[1] = test system: KBM5-T315I (human chronic myelogenous leukemia); assay: MTT cancer cell growth inhibition; format: cell-based; details: Homo sapiens, 72 h, MTT, 72 hours incubation, KBM5-T315I cells; read-out: GI50 KBM5-T315I
Method in brief: (§1)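 72 h exposure, final drug 10^−5–10^−10 M, triplicate wells; 1500 cells/well plated the day before; medium DMEM or 1640 + 10% FBS; 37° C./5% CO2. MTT (5 mg/ml stock) 4 h, DMSO solubilisation, A570 → % viability → GI50.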

[2] = test system: A549 (human lung cancer cells); assay: MTT cancer cell growth inhibition; format: cell-based; details: Homo sapiens, A549, 72 h, MTT
Method in brief: as §1

[3] = test system: KBM-5 (human chronic myelogenous leukemia); assay: MTT cancer cell growth inhibition; format: cell-based; details: Homo sapiens, KBM5, 72 h, MTT, 72 hours incubation, KBM-5 cells; read-out: GI50 KBM-5
Method in brief: as §1

[4] = test system: lncap (prostate cancer cells); assay: MTT cancer cell growth inhibition; format: cell-based; details: Homo sapiens, LNCaP, 72 h, MTT
Method in brief: as §1

[5] = test system: H1975 (non-small cell lung adenocarcinoma); assay: MTT cancer cell growth inhibition; format: cell-based; details: Homo sapiens, NCI-H1975, 72 h, MTT, 72 hours incubation, H1975 cells; read-out: GI50 H1975
Method in brief: as §1

[6] = test system: MOLT-4 (human acute lymphoblastic leukemia cells); assay: MTT cancer cell growth inhibition; format: cell-based; details: Homo sapiens, MOLT-4, 72 h, MTT
Method in brief: as §1

[7] = test system: Bel-7402 (human hepatoma cells); assay: MTT cancer cell growth inhibition; format: cell-based; details: Homo sapiens, Bel-7402, 72 h, MTT, 72 hours incubation, Bel-7402 cells; read-out: GI50 Bel-7402
Method in brief: as §1

[8] = test system: HT1080 (human fibrosarcoma cells); assay: MTT cancer cell growth inhibition; format: cell-based; details: Homo sapiens, HT-1080, 72 h, MTT
Method in brief: as §1

[9] = test system: HCC827 (human non-small cell lung cancer cells); assay: MTT cancer cell growth inhibition; format: cell-based; details: Homo sapiens, HCC827, 72 h, MTT, 72 hours incubation, HCC827 cells; read-out: GI50 HCC827
Method in brief: as §1

[10] = test system: MDA-MB-231 (breast cancer cells); assay: MTT cancer cell growth inhibition; format: cell-based; details: Homo sapiens, MDA-MB-231, 72 h, read-out: GI50 MDA-MB-231, MTT, 72 hours incubation, MDA-MB-231 cells
Method in brief: as §1

[11] = test system: Huh-7 (human hepatoma cells); assay: MTT cancer cell growth inhibition; format: cell-based; details: Homo sapiens, Huh-7, 72 h, MTT, 72 hours incubation, Huh-7 cells; read-out: GI50 Huh-7
Method in brief: as §1

[12] = test system: DU145 (human prostate cancer cells); assay: MTT cancer cell growth inhibition; format: cell-based; details: Homo sapiens, DU-145, 72 h, MTT
Method in brief: as §1

[13] = test system: PANC-1 (Pac-1, human pancreatic cancer cells); assay: MTT cancer cell growth inhibition; format: cell-based; details: Homo sapiens, PANC-1, 72 h, MTT
Method in brief: as §1

[14] = test system: MCF-7 (human breast cancer cells); assay: MTT cancer cell growth inhibition; format: cell-based; details: Homo sapiens, MCF7, 72 h
Method in brief: as §1

[15] = test system: N-87 (human gastric cancer cells); assay: MTT cancer cell growth inhibition; format: cell-based; details: Homo sapiens, 72 h, MTT, 72 hours incubation, N-87 cells; read-out: GI50 N-87
Method in brief: as §1

[16] = test system: U937 (human leukemia cells); assay: MTT cancer cell growth inhibition; format: cell-based; details: Homo sapiens, U-937, 72 h, MTT
Method in brief: as §1

[17] = test system: BGC-823 (human gastric cancer cells); assay: MTT cancer cell growth inhibition; format: cell-based; details: Homo sapiens, BGC-823, 72 h, MTT
Method in brief: as §1

[18] = test system: SGC-7901 (human gastric cancer cells); assay: MTT cancer cell growth inhibition; format: cell-based; details: Homo sapiens, SGC-7901, 72 h, MTT, 72 hours incubation, SGC-7901 cells; read-out: GI50 SGC-7901
Method in brief: as §1

[19] = test system: Hela (human cervical cancer cells); assay: MTT cancer cell growth inhibition; format: cell-based; details: Homo sapiens, HeLa, 72 h, MTT
Method in brief: as §1

[20] = test system: K562 (human leukemia cells); assay: MTT cancer cell growth inhibition; format: cell-based; details: Homo sapiens, K562, 72 h, MTT, 72 hours incubation, K562 cells; read-out: GI50 K562
Method in brief: as §1

[21] = 72 hours incubation, read-out: GI50 A54
[22] = 72 hours incubation, read-out: GI50 Mol
[23] = 72 hours incubation, read-out: GI50 HT1
[24] = 72 hours incubation, read-out: GI50 Du1
[25] = 72 hours incubation, read-out: GI50 MCF
[26] = 72 hours incubation, read-out: GI50 BG
[27] = 72 hours incubation, read-out: GI50 Hela
[28] = 72 hours, present invention, read-out: GI50 A549, a
[29] = 72 hours, present invention, read-out: GI50 lncap, a
[30] = 72 hours, present invention, read-out: GI50 Molt-4, a
[31] = 72 hours, present invention, read-out: GI50 HT1080, a
[32] = 72 hours, present invention, read-out: GI50 Du145, a
[33] = 72 hours, present invention, read-out: GI50 PANC-1, a
[34] = 72 hours, present invention, read-out: GI50 MCF7, a
[35] = 72 hours, present invention, read-out: GI50 U937, a
[36] = 72 hours, present invention, read-out: GI50 BGC823, a
[37] = 72 hours, present invention, read-out: GI50 Hela, a
[38] = A549 cells, 72 hours incubation, read-out: GI50 A54
[39] = lncap cells, 72 hours incubation, read-out: GI50 lnca
[40] = HT1080 cells, 72 hours incubation, read-out: GI50 HT1
[41] = PANC-1 cells, 72 hours incubation, read-out: GI50 PAN
[42] = MCF-7 cells, 72 hours incubation, read-out: GI50 MCF
[43] = BGC-823 cells, 72 hours incubation, read-out: GI50 BG
[44] = Hela cells, 72 hours incubation, read-out: GI50 Hela

Row | SMILES | IC50 (HDAC2) | GI50 [1] | GI50 [2, 21] | GI50 [3] | GI50 [5] | GI50 [6, 22] | GI50 [7] | GI50 [8, 23] | GI50 [9] | GI50 [10] | GI50 [11] | GI50 [12, 24] | GI50 [14, 25] | GI50 [15] | GI50 [17, 26] | GI50 [18] | GI50 [19, 27] | GI50 [20] | GI50 [2, 28] | GI50 [4, 29] | other results
1 | C/C=C1\NC(=O)c2ccc(F)c(n2)CNC(=O)C[C@@H](/C=C/CCSC(C)=O)OC(=O)[C@H](CCCCN)NC1=O [Example 74] | 129 nM | 350 nM | 40 nM | 37 nM | 29 nM | 20 nM | 43 nM | 40 nM | 43 nM | 24 nM | 24 nM | 30 nM | 350 nM | 37 nM | 30 nM | 49 nM | 30 nM | 39 nM |  |  | GI50 ([4]; 72 hours incubation, read-out: GI50 lnca): 20 nM; GI50 ([13]; 72 hours incubation, read-out: GI50 PAN): 40 nM; GI50 ([16]; 72 hours incubation, read-out: GI50 U93): 20 nM
2 | C/C=C1\NC(=O)c2cccc(n2)CNC(=O)C[C@@H](/C=C/CCSC(C)=O)OC(=O)[C@H](C(C)C)NC1=O [Compound 7] | 17 nM | 52 nM | 50 nM | 49 nM | 34 nM | 20 nM | 82 nM | 20 nM | 54 nM | 91 nM | 46 nM | 10 nM | 30 nM | 29 nM | 30 nM | 35 nM | 40 nM | 41 nM | 52 nM | 3 nM | GI50 [6, 30]: 21 nM; GI50 [8, 31]: 27 nM; GI50 [12, 32]: 13 nM; GI50 [13, 33]: 5 nM; GI50 [14, 34]: 30 nM; GI50 [16, 35]: 8 nM; GI50 [17, 36]: 31 nM; GI50 [19, 37]: 40 nM
3 | C/C=C1\NC(=O)c2cc(SC)cc(n2)CNC(=O)C[C@@H](/C=C/CCSC(C)=O)OC(=O)[C@H](CC)NC1=O [Compound 178] | 26 nM | 22 nM |  | 93 nM | 89 nM |  | 58 nM |  | 32 nM | 26 nM | 42 nM |  |  | 55 nM |  | 76 nM |  | 53 nM |  |  | GI50 [2, 38]: 30 nM; GI50 [4, 39]: 50 nM; GI50 ([6]; MOLT-4 cells, 72 hours incubation, read-out: GI50 Mol): 50 nM; GI50 [8, 40]: 20 nM; GI50 ([12]; DU145 cells, 72 hours incubation, read-out: GI50 Du1): 20 nM; GI50 [13, 41]: 350 nM; GI50 [14, 42]: 30 nM; GI50 ([16]; U937 cells, 72 hours incubation, read-out: GI50 U93): 90 nM; GI50 [17, 43]: 60 nM; GI50 [19, 44]: 60 nM
4 | C/C=C1\NC(=O)c2cccc(n2)CNC(=O)C[C@@H](/C=C/CCSC(=O)CCCCCCC)OC(=O)[C@H](Cc2cccc3ccccc23)NC1=O [Compound 239] | 56 nM | 23 nM |  | 29 nM | 91 nM |  | 28 nM |  | 31 nM | 25 nM | 51 nM |  |  | 46 nM |  | 35 nM |  | 63 nM | 12 nM | 17 nM | GI50 [2, 38]: 10 nM; GI50 [4, 39]: 10 nM; GI50 [6, 30]: 4 nM; GI50 [8, 40]: 10 nM; GI50 [8, 31]: 11 nM; GI50 [12, 32]: 1 nM; GI50 [13, 33]: 130 nM; GI50 [13, 41]: 130 nM; GI50 [14, 34]: 19 nM; GI50 [14, 42]: 10 nM; GI50 [16, 35]: 3 nM; GI50 [17, 43]: 20 nM; GI50 [17, 36]: 22 nM; GI50 [19, 44]: 11 nM; GI50 [19, 37]: 11 nM
